In publication PMC3781220 (The Journal of organic chemistry, 2010):
Like-named read-outs stand apart in the source and are kept apart here.

Columns and labels:
[1] = target: T1, recombinant yeast squalene synthase (Saccharomyces cerevisiae, UniProt P29704); format: biochemical; settings: for potency ratio of 2R,3S enantiomer over 2S,3R enantiomer, absence of PPi: no added PPi
T1 sequence (P29704 1-420 limits assumed): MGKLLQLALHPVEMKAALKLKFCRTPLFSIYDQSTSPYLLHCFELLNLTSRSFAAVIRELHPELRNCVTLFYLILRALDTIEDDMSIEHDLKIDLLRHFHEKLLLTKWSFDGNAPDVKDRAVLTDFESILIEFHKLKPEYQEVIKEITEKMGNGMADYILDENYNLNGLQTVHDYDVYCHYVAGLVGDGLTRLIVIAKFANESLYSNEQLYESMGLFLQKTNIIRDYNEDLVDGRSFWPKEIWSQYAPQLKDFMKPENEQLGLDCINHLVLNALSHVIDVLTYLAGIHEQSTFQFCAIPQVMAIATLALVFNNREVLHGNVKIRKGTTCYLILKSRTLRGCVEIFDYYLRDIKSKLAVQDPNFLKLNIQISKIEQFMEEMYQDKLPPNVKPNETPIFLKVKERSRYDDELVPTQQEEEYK

[2] = target: T1, recombinant yeast squalene synthase; settings: cited from earlier work

For `CC(C)=CCC/C(C)=C/CCCCN1[C@H](COP(=O)([O-])OP(=O)([O-])[O-])[C@@]1(C)CC/C=C(\C)CCC=C(C)C.CCCC[N+](CCCC)(CCCC)CCCC.CCCC[N+](CCCC)(CCCC)CCCC.CCCC[N+](CCCC)(CCCC)CCCC` (relative stereo) [(2R,3S)-6-OPP, (2R,3S)-trans-[2-((E)-4,8-Dimethyl-3,7-nonadienyl)-1-((E)-6, 10-dimethyl-5,9-undecadienyl)-2-methylaziridin-3-yl]methyl Diphosphate, Tris (tetrabutylammonium) Salt], the “potency ratio of 2R,3S enantiomer over 2S,3R enantiomer, presence of PPi” value ([1]; 1.5 mM PPi) was 4 fold, the “synergistic effect of the PPi additive on inhibition” value ([1]; IC50 −PPi versus +PPi) was “almost no change” and the “potency ratio of 2R,3S enantiomer over 2S,3R enantiomer, absence of PPi” value [1] was “about 16 fold”. For the same compound, the “potency ratio of 2R,3S enantiomer over 2S,3R enantiomer, absence of PPi” value ([1]; listed as 2R,3S enantiomer) was 16 fold and the IC50 ([1]; read-out: IC50, +PPi, 1.5 mM PPi added, pH 7.2, 100 μM [3H]FPP, ± standard error) was 1.17 ± 0.08 µM.

In the case of `CC(C)=CCC/C(C)=C/CC/C(C)=C/C1C(COP(=O)(O)OP(=O)(O)O)C1(C)CC/C=C(\C)CCC=C(C)C` (stereo in doubt) [PSPP, presqualene diphosphate], the Ki ([2]; read-out: Ki PSPP, affinity of intermediate for the enzyme) is given as 75 ± 20 µM.

For `CC(C)=CCC/C(C)=C/CC/C(C)=C/COP(=O)(O)OP(=O)(O)O` [FPP, (E,E)-farnesyl diphosphate, reference compound], the Km ([1]; read-out: Km for FPP, substrate constant given with the Ki experiment) is listed as 20 µM and the “S0.5 FPP” value ([2]; affinity of substrate for the enzyme) is listed as 19 ± 6 µM.
